This is an account of results in patent US20180305299A1, “N-(2-FLUORO-2-PHENETHYL)CARBOXAMIDES AS NEMATICIDES AND ENDOPARASITICIDES” (priority 2013, published 2018).

Structures can show the parent of a compound that is named as a salt. Where two headings read alike, the source gives them in different places.

Data set [1] can be described thus: log P (HPLC-MS). The data set is classed as physicochemical.
Data set [2] has as its system Haemonchus contortus. Briefly: Haemonchus contortus test (HAEMCO), larval mortality. The following applies: 120 h; for Emax at 0.8 ppm: 5 dat, read-out: % Efficacy HAEMCO; for mortality at 20 ppm: application rate 20 ppm, after 5 days, read-out: activity (larval mortality, efficacy). How it is done:
Haemonchus contortus—Test (HAEMCO)
(§1) Solvent: dimethyl sulfoxide
(§2) To produce a suitable preparation of active compound, 10 mg of active compound are dissolved in 0.5 ml solvent, and the concentrate is diluted with “Ringer's solution” to the desired concentration.
Approximately 40 larvae of the red stomach worm (Haemonchus contortus) are transferred into a test tube containing compound solution.
After 5 days percentage of larval mortality are recorded. 100% efficacy means all larvae are killed, 0% efficacy means no larvae are killed.
Haemonchus contortus—Test (HAEMCO) Solvent: dimethyl sulfoxide

Data set [3] deals with Heligmosomoides polygyrus. Briefly: Heligmosomoides polygyrus/mouse in vivo efficacy test. The following applies: mice; oral; four consecutive days during early patency; dose not given. The method, then: Heligmosomoides polygyrus/mouse
Mice, experimentally infected by Heligmosomoides polygyrus, were treated on four consecutive days during early patency. Test compounds were formulated as solutions or suspensions and applied orally.
Efficacy was determined as reduction of worm count in the intestine after necropsy compared to worm count in an infected and placebo-treated control group.

In data set [4] the test system is Meloidogyne incognita. Briefly: Meloidogyne incognita test (MELGIN), gall formation, solvent acetone. The data set is classed as in vivo. The conditions noted are these: application rate 20 ppm; after 14 days. The method, then:
(§3) Meloidogyne incognita—Test (MELGIN)
To produce a suitable preparation of active compound, 1 part by weight of active compound is mixed with the stated amount of solvent, and the concentrate is diluted with water to the desired concentration.
Vessels are filled with sand, a solution of the active ingredient, a suspension containing eggs and larvae of the southern root-knot nematode (Meloidogyne incognita) and salad seeds. The salad seeds germinate and the seedlings grow. Galls develop in the roots.
After 14 days the nematicidal activity is determined on the basis of the percentage of gall formation. 100% means that no galls were found; 0% means that the number of galls found on the roots of the treated plants was equal to that in untreated control plants.

Data set [5] concerns Meloidogyne incognita. The data set is described as follows: Meloidogyne incognita test (MELGIN), comparison example, solvent dimethylformamide with emulsifier. It is filed as in vivo. The conditions noted are these: 504 h, 21 dat, read-out: % Efficacy MELGIN. The method, then: as §3
To produce a suitable preparation of active compound, 1 part by weight of active compound is mixed with the stated amount of solvent, and the concentrate is diluted with emulsifier-containing water to the desired concentration.
Vessels are filled with sand, a solution of the active ingredient, a suspension containing eggs and larvae of Meloidogyne incognita and salad seeds. The salad seeds germinate and the seedlings grow. Galls develop on the roots.
After the specified period of time the nematicidal activity is determined on the basis of the percentage of gall formation. 100% means that no galls were found; 0% means that the number of galls found on the roots of the treated plants was equal to that in untreated control plants.

In data set [6] the test system is Cooperia curticei. Briefly: Cooperia curticei test (COOPCU), larval mortality. The conditions noted are these: 120 h; for Emax at 0.8 ppm: read-out: % Efficacy COOPCU; for mortality at 20 ppm: read-out: activity (larval mortality, efficacy). The method, then: Cooperia curticei—Test (COOPCU)
as §1, §2
Approximately 40 nematode larvae (Cooperia curticei) are transferred into a test tube containing the compound solution.
After 5 days percentage of larval mortality is recorded. 100% efficacy means all larvae are killed; 0% efficacy means no larvae are killed.
Cooperia curticei—Test (COOPCU) Solvent: dimethyl sulfoxide

Usually chromatographic logP stands for a lipophilicity value derived from retention on a column. A low value points to lower lipophilicity. Consider `CC(F)(CN)c1ccc(Cl)cc1Cl` (stereo not drawn) [2-(2,4-dichlorophenyl)-2-fluoropropan-1-amine hydrochloride], for which the chromatographic logP in data set [1] came out at 0.89.

By mortality is commonly meant the percentage killed. For the compound `O=C(NCC(F)(F)c1ccc(Cl)cc1Cl)c1ccccc1C(F)(F)F` [Example 1-1, N-[2-(2,4-dichlorophenyl)-2,2-difluoroethyl]-2-(trifluoromethyl)benzamide], in data set [2], the Emax at 0.8 ppm was found to be 100% and the mortality at 20 ppm worked out at 100%. The “activity (reduction of worm count in the intestine vs placebo-treated control)” value in data set [3] was 65%. The “activity (nematicidal, gall formation)” value in data set [4] was 100%. Moreover, in data set [5], the Emax at 2 ppm came to 95%. Besides, in data set [6], the Emax at 0.8 ppm worked out at 100% and the mortality at 20 ppm is 100%.

`CC(Cc1ccc(Cl)cc1Cl)NC(=O)c1ccccc1C(F)(F)F` (stereo not drawn) [Example 1-32 known from WO-A 2012/118139, reference compound]: the Emax at 0.8 ppm in data set [2] worked out at 80%; in data set [6] (0.8 ppm, 5 dat), 0%. In addition, the Emax at 2 ppm in data set [5] amounted to 15%.

As to `CC(F)(CNC(=O)c1ccccc1C(F)(F)F)c1ccc(Cl)cc1Cl` (stereo not drawn) [Example 1-393, N-[2-(2,4-dichlorophenyl)-2-fluoropropyl]-2-(trifluoromethyl)benzamide], the mortality at 20 ppm in data set [2] and in data set [6] was 100% each time. Besides, the “activity (nematicidal, gall formation)” value in data set [4] stood at 100%.

On to `O=C(NCC(F)c1ccccc1C(F)(F)F)c1ccccc1C(F)(F)F` (stereo not drawn) [Example 1-399, N-{2-fluoro-2-[2-(trifluoromethyl)phenyl]ethyl}-2-(trifluoromethyl)benzamide], for which the mortality at 20 ppm in data set [2] was 100%.

Turning to `O=C(NCC(F)c1ccccc1Cl)c1ccccc1C(F)(F)F` (stereo not drawn) [Example 1-400, N-[2-(2-chlorophenyl)-2-fluoroethyl]-2-(trifluoromethyl)benzamide], the mortality at 20 ppm in data set [2] amounted to 100%.

Turning to `CC(F)(CNC(=O)c1ccccc1C(F)(F)F)c1ccc(Cl)cc1Cl` (stereo not drawn) [Example 1-406, N-[2-(2,4-dichlorophenyl)-2-fluoropropyl]-2-(trifluoromethyl)benzamide], the “activity (nematicidal, gall formation)” value in data set [4] is on record as 100%. Besides, the chromatographic logP in data set [1] turned out to be 3.7.
